Where “and” joins values, the source holds several entries; their conditions need not be identical. Equal values may be shown once. Read-outs that look alike come from different tables or passages of the source. Where a SMILES comes first, the peptide text is derived from it.

These results are taken from US9145445B2 (priority 2003, dated 2015).

For series [1], the system named is PT immobilized on Streptavidin beads.
The subject of a further series is purified Pertussis Toxin. The experiment in a line: binding of purified PT to peptides immobilized on streptavidin sepharose. Details: species or system Bordetella pertussis. The following applies: ~200 pmol peptide on streptavidin sepharose, 100 pmol purified PT, gel, silver staining.
Series [2] concerns PT. The conditions noted are these: phage display, Bogdan, et al.; cited from earlier work.
Chain of PT (P04977 35-269 limits assumed): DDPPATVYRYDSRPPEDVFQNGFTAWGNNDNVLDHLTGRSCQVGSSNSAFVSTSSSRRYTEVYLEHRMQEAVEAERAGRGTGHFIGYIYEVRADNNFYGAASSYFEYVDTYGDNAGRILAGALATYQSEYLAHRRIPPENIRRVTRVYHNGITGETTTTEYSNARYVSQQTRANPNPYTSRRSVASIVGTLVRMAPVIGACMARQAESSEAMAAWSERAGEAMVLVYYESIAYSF
Chain of PT (P04978 28-226 limits assumed, further chain): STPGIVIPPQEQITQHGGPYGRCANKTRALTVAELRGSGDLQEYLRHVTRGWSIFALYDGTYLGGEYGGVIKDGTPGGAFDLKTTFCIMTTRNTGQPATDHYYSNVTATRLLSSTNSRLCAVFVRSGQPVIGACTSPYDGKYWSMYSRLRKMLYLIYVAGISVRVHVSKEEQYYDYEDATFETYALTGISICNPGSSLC
Chain of PT (P04979 29-227 limits assumed, further chain): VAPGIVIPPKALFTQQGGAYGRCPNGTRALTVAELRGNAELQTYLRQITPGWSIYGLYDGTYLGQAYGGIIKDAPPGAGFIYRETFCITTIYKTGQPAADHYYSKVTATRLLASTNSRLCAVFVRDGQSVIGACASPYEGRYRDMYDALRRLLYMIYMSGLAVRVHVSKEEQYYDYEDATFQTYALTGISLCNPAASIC
Chain of PT (P0A3R5 43-152 limits assumed, further chain): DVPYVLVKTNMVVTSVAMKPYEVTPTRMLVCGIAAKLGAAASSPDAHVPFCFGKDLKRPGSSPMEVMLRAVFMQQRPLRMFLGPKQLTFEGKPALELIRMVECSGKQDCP
Chain of PT (P04981 35-133 limits assumed, further chain): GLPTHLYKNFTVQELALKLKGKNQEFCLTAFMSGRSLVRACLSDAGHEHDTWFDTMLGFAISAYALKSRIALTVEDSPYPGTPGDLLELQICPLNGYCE
Series [3] concerns PT immobilized on a CM5 chip. The class given is binding, Bordetella pertussis.
Chain of PT immobilized on a CM5 chip (P04977 35-269 limits assumed): as the sequence (P04977 35-269 limits assumed) above
Chain of PT immobilized on a CM5 chip (P04978 28-226 limits assumed, further chain): as the sequence (P04978 28-226 limits assumed, further chain) above
Chain of PT immobilized on a CM5 chip (P04979 29-227 limits assumed, further chain): as the sequence (P04979 29-227 limits assumed, further chain) above
Chain of PT immobilized on a CM5 chip (P0A3R5 43-152 limits assumed, further chain): as the sequence (P0A3R5 43-152 limits assumed, further chain) above
Chain of PT immobilized on a CM5 chip (P04981 35-133 limits assumed, further chain): as the sequence (P04981 35-133 limits assumed, further chain) above
The test system of series [4] is PT. The series can be described thus: estimation of peptides binding capacity (fraction of binding active peptide). Details: species or system Bordetella pertussis. The following applies: 20 pmol sepharose-immobilized peptide, 100 pmol PT (500 nM); 1:1 binding assumed. The method, then:
For estimation of peptides binding capacity 20 pmol of sepharose-immobilized peptides were incubated with an excess of 100 pmol PT in a volume of 200 μl HEPES buffer (corresponds to 500 nM PT). After washing, the fraction of peptide-streptavidin sepharose bound PT was quantified by gel analysis. This allows directly to calculate the fraction of binding active peptide under the applied conditions (assuming the PT/peptide binding ratio is 1:1). Under the assumption that a concentration of 500 nM PT is high enough to reach Bmax for all peptides. The values presented therein are estimations for the expectable binding capacities of the peptides. An exact evaluation of binding capacity (Bmax) and dissociation constant (KD) of the most suitable binder may also be performed.

In series [5] the test system is PT. The experiment in a line: stability of PT/peptide complexes, BIAcore 2000. The class given is binding, Bordetella pertussis. The conditions noted are these: for pH range stability of the complex (stable): PT/peptide complex, instable at pH 2.5 or 10.5. As for the experimental part: The stability of PT/peptide complexes were investigated using the BIAcore 2000 instrument under different pH and salt conditions that were shown before not to interfere with the PT hexamer stability. 500-1000 RU of the synthetic peptides were immobilized on BIAcore streptavidin chips. To allow binding of PT to the immobilized peptides, 20 nM purified PT in HEPES buffer was injected for 1 minute. After equilibration with HBS/EP running buffer (0.01 M HEPES pH 7.4, 0.15 M NaCl 3 mM EDTA 0.005% polysorbate 20 (v/v)) the PT/peptide complexes were washed by injection of • (a) 100 mM carbonate buffer at pH 10.5 and 9.5 • (b) 10 mM acetate buffer at pH 5.5, 5.0, 4.5, and 4.0 • (c) 10 mM glycine buffer at pH 3.0 and 2.5 • (d) 0.5, 1.0, 1.5, 2.0 M NaCl in 10 mM acetate buffer, pH 6.0, • (e) 0.5, 1.0, 1.5, 2.0 M NaCl in 50 mM Tris/HCl buffer, pH 8.5, • (f) 0.5, 1.0, 1.5, 2.0 M KCl in 10 mM acetate buffer, pH 6.0, • (g) 0.5, 1.0, 1.5, 2.0 M KCl in 50 mM Tris/HCl buffer, pH 8.5, • (h) 0.5, 1.0, 1.5, 2.0 M NaCl in 10 mM acetate buffer, pH 6.0, • (i) 0.5, 1.0, 1.5, 2.0 M NaCl in 50 mM Tris/HCl buffer, pH 8.5.
After the end of each buffer injection, the chip was equilibrated with HBS/EP running buffer. The loss of PT hexamer on the chip under the applied buffer conditions (difference of measured RU signal before and after buffer injection) reflects the PT/peptide complex stability.

Series [6] has as its system PT. The series can be described thus: reutilization of peptide sepharose for repeated PT binding and elution. Details: species or system Bordetella pertussis. The conditions noted are these: 4 cycles of PT binding, carbonate pH 10.5 elution, 10 mM HCl regeneration. The method, then: For binding of PT each peptide streptavidin sepharose was incubated with 400 μl sample B (adjusted to pH 7.0-7.5 by addition of HC1) for 1 hour at RT and washed 4 times with 50 mM Tris/HC1, pH 7.5 (each 200 μl). PT was eluted by 4 consecutive elutions with 100 mM Carbonate buffer at pH 10.5 (each 20 μl). Subsequently the column matrices were regenerated by three washes with 10 mM HC1 (l×20 μl, 2×100 μl) and afterwards neutralized by two washes with 200 μl 50 mM Tris/HC1, pH 7.5. This binding, elution and regeneration procedure was applied to the peptide sepharose for three additional times. […] (FIG. 25). • 5. Large-scale FPLC-Purification of PT

Series [7] relates to PT. The class given is binding, Bordetella pertussis. The conditions noted are these: input of 400 pmol peptide to 1 μl streptavidin sepharose.
Series [8] has as its system chip immobilized biotinylated PT. The conditions noted are these: BIAcore streptavidin chip. From the text:
The quality of the biotinylation reaction was controlled by analysis of the interaction of biotinylated PT with a BIAcore streptavidin chip using BIAcore instrument (BIAcore 2000).
On the technique in general: Surface plasmon resonance follows binding to a sensor surface in real time, without labels.

The subject of series [9] is PT. The format is binding, Bordetella pertussis.

Chain of purified Pertussis Toxin (P04977 35-269 limits assumed): as the sequence (P04977 35-269 limits assumed) above
Chain of purified Pertussis Toxin (P04978 28-226 limits assumed, further chain): as the sequence (P04978 28-226 limits assumed, further chain) above
Chain of purified Pertussis Toxin (P04979 29-227 limits assumed, further chain): as the sequence (P04979 29-227 limits assumed, further chain) above
Chain of purified Pertussis Toxin (P0A3R5 43-152 limits assumed, further chain): as the sequence (P0A3R5 43-152 limits assumed, further chain) above
Chain of purified Pertussis Toxin (P04981 35-133 limits assumed, further chain): as the sequence (P04981 35-133 limits assumed, further chain) above
Chain of PT immobilized on Streptavidin beads (P04977 35-269 limits assumed): as the sequence (P04977 35-269 limits assumed) above
Chain of PT immobilized on Streptavidin beads (P04978 28-226 limits assumed, further chain): as the sequence (P04978 28-226 limits assumed, further chain) above
Chain of PT immobilized on Streptavidin beads (P04979 29-227 limits assumed, further chain): as the sequence (P04979 29-227 limits assumed, further chain) above
Chain of PT immobilized on Streptavidin beads (P0A3R5 43-152 limits assumed, further chain): as the sequence (P0A3R5 43-152 limits assumed, further chain) above
Chain of PT immobilized on Streptavidin beads (P04981 35-133 limits assumed, further chain): as the sequence (P04981 35-133 limits assumed, further chain) above
Chain of chip immobilized biotinylated PT (P04977 35-269 limits assumed): as the sequence (P04977 35-269 limits assumed) above
Chain of chip immobilized biotinylated PT (P04978 28-226 limits assumed, further chain): as the sequence (P04978 28-226 limits assumed, further chain) above
Chain of chip immobilized biotinylated PT (P04979 29-227 limits assumed, further chain): as the sequence (P04979 29-227 limits assumed, further chain) above
Chain of chip immobilized biotinylated PT (P0A3R5 43-152 limits assumed, further chain): as the sequence (P0A3R5 43-152 limits assumed, further chain) above
Chain of chip immobilized biotinylated PT (P04981 35-133 limits assumed, further chain): as the sequence (P04981 35-133 limits assumed, further chain) above

“MHHHHHHSGSSSGSGCVKKDELCARWDLVCCEPLECIYTSELYATCGSGSSGSS [gurmarin variant 9]”: the “target binding to PT in the presence of AP process fluids” value (“target binding to PT in the presence” below) in series [1] is “not influenced”.
In the case of “SGCVKKDELCELAIDECCEPLECTKGDLGFRKCG [gurmarin 19n]”, the “binding to purified PT” value in the series on purified Pertussis Toxin is given as “clear binding”.
On to “MHHHHHHSGSSSGSGCVKKDELCELAVDECCEPLECFQMGHGFKRCGSGSSGSS [gurmarin variant 10]”, for which, in series [1], the “target binding to PT in the presence” value is “not influenced”.
Pertussis toxin [PT]: the “pH range over which Pertussis toxin hexamer is stable” value (BIAcore, buffers pH 2-10.5) was 2.5-10.5 pH. In addition, the “PT hexamer stability (%)” value (pH 2) was found to be 93%; the “PT hexamer stability (%)” value (pH 2.5) worked out at 98%; the “PT hexamer stability (%)” value (pH 3) is 100%; the “PT hexamer stability (%)” value (pH 4) is 100%; the “PT hexamer stability (%)” value (pH 4.5) was 100%; the “PT hexamer stability (%)” value (pH 5) amounted to 100%. Also, the “PT hexamer stability (%)” value reads like this: (pH 5.5) 100%; (pH 8.5) 100%; (pH 9.6) 98%; (pH 10.5) 95%.
As for “MGRGSHHHHHHARSTMNTNRMDIQRLMTNHVKRDSSPGSIDANAPKASAI [PP26 variant 6]”, the “target binding to PT in the presence” value in series [1] was “not reduced”.
Turning to DGSFSGF [3G2], the PT-binding capacity result with PT [2] is “PT-binding capacity”.
For `CC[C@H](C)[C@H](NC(=O)[C@H](CO)NC(=O)[C@H](CC(C)C)NC(=O)[C@H](CCCNC(=N)N)NC(=O)[C@H](CO)NC(=O)[C@H](CCCNC(=N)N)NC(=O)[C@H](Cc1c[nH]cn1)NC(=O)[C@@H]1CCCN1C(=O)[C@H](CCCNC(=N)N)NC(=O)[C@H](CC(=O)O)NC(=O)[C@H](Cc1c[nH]c2ccccc12)NC(=O)CNC(=O)[C@@H](NC(=O)[C@H](CC(=O)O)NC(=O)[C@H](Cc1ccc(O)cc1)NC(=O)[C@H](Cc1c[nH]c2ccccc12)NC(=O)[C@@H](NC(=O)[C@H](CCC(=O)O)NC(=O)[C@H](CC(N)=O)NC(=O)[C@H](CC(C)C)NC(=O)[C@@H]1CCCN1C(=O)[C@@H](NC(=O)[C@@H](NC(=O)[C@H](CC(N)=O)NC(=O)[C@H](CO)NC(=O)[C@H](CCCNC(=N)N)NC(=O)COCCOCCNC(=O)CCCC[C@@H]1SC[C@@H]2NC(=O)N[C@@H]21)C(C)C)[C@@H](C)CC)C(C)C)[C@@H](C)O)C(=O)N[C@@H](CC(=O)O)C(=O)N[C@@H](CC(=O)O)C(=O)N[C@@H](CC(=O)O)C(=O)N[C@@H](C)C(=O)O` [pp26 9n] (HELM PEPTIDE1{[O=C1N[C@H]2[C@H](CS[C@H]2CCCCC(=O)[*:2])N1].[O=C(COCCOCCN[*:1])[*:2]].R.S.N.V.I.P.L.N.E.V.W.Y.D.T.G.W.D.R.P.H.R.S.R.L.S.I.D.D.D.A}$$$$V2.0), in [3], the “Association rate constant kon” value stood at 130000 M⁻¹ s⁻¹ and the “Dissociation rate constant koff” value is on record as 10^−3 s^−1.
For the molecule “RSSHCRHRNCHTITRGNMRIETPNNIRKDA [pp26 5n]”, in the series with PT [4], the “Fraction of binding active peptide” value is given as greater than 5%. Besides, in the series on purified Pertussis Toxin, the “binding to purified PT” value was “clear binding”.
Turning to NGSFSGC [3G8], the PT-binding capacity entry in the series on PT [2] is on record as “PT-binding capacity”.
As to “MHHHHHHSGSSSGSGCVKKDELCELAVDECCEPLECTKGDLGFRKCGSGSSGSS [gurmarin variant 19]”, in [1], the “target binding to PT in the presence” value was “not influenced”.
Consider NGSFSGF [3G5], for which the PT-binding capacity result in the series with PT [2] was “PT-binding capacity”.
Regarding “SGCVKKDELCELAVDECCEPLECFQMGHGFKRCG [gurmarin 10n]”, the “Fraction of binding active peptide” value in the series on PT [4] is reported as greater than 5%. Further, in the series with purified Pertussis Toxin, the “binding to purified PT” value is listed as “clear binding”.
As to “RSSHCRHRNCHTITRGNMRIETPNNIRKDAK [pp26 5c]”, in the series on purified Pertussis Toxin, the “binding to purified PT” value is reported as “clear binding”.
In the case of “MGRGSHHHHHHARSNVIPLNEVWYDTGWDRPHRSRLSIDDDANAPKASAI [PP26 variant 9]”, the “target binding to PT in the presence” value in [1] was “not reduced”.
With “MGRGSHHHHHHARSSHCRHRNCHTITRGNMRIETPNNIRKDANAPKASAI [PP26 variant 5]”, the “target binding to PT in the presence” value in series [1] is on record as “not reduced”.
Take “SGCVKKDELCARWDLVCCEPLECIYTSELYATCG [gurmarin 9n]”: in the series with PT [5], the “NaCl in buffer that interferes with PT/peptide complex stability” value is 2.5 M and the “pH range stability of the complex (stable)” value (“pH range stability” below) is given as 3-9 pH. In the series with PT [5] (pH 8.5), the “KCl stability of the complex (stable)” value is “strong sensitive to salt” and the “NaCl stability of the complex (stable)” value was “strong sensitive to salt”. For the same molecule, the “Fraction of binding active peptide” value in the series with PT [4] is greater than 12.5%. In addition, the “binding to purified PT” value with purified Pertussis Toxin is listed as “clear binding”.
Take “RSWRDTRKLHMRHYFPLAIDSYWDHTLRDA [pp26 15n]”: in the series with PT [5], the “pH range stability” value is on record as 3-9 pH. Besides, in the series with PT [5] (pH 6), the “KCl stability of the complex (stable)” value was determined as 2 M, the “MgCl2 stability of the complex (stable)” value is reported as “to 2M” and the “NaCl stability of the complex (stable)” value is 2 M. In addition, in the series on PT [5] (pH 8.5), the “KCl stability of the complex (stable)” value was found to be 2 M, the “MgCl2 stability of the complex: complete elution” value is listed as “not” and the “NaCl stability of the complex (stable)” value is 2 M. Further, the “MgCl2 stability of the complex: Elution / destabilized” value in the series with PT [5] (pH 8.5 (50 mM Tris/HCl)) is “Elution ≧1.5, M”. Further, the “Fraction of binding active peptide” value in the series with PT [4] is reported as greater than 12.5%. Besides, in the series on purified Pertussis Toxin, the “binding to purified PT” value is listed as “clear binding”.
For the molecule “SGCVKKDELCSQSVPMCCEPLECKWFNENYGICGS [gurmarin 15n]”, the “pH range stability” value with PT [5] was 3-9 pH. Moreover, in the series with PT [5] (pH 6), the “KCl stability of the complex (stable)” value is “sensitive to salt”, the “MgCl2 stability of the complex: Elution” value is given as “Elution ≧1M,”, the “MgCl2 stability of the complex: complete elution” value is listed as “elution ≧2M” and the “NaCl stability of the complex (stable)” value is given as “sensitive to salt”. Moreover, in the series with PT [5] (pH 8.5), the “KCl stability of the complex (stable)” value is on record as “sensitive to salt”, the “MgCl2 stability of the complex: complete elution” value is “elution ≧2M” and the “NaCl stability of the complex (stable)” value is “sensitive to salt”. Moreover, the “reusability of peptide loaded sepharose” value with PT [6] is “may be re-utilized”. Further, the “binding to purified PT” value with purified Pertussis Toxin was “clear binding”. In addition, in the series on PT [7], the “Amount of elutable peptide (effectively bound fraction of peptide)” value amounted to 50 pmol.
Regarding asialofetuin, in [8], the “binding signal to immobilized PT” value is on record as roughly 400 RU and the “unspecific binding to the control cell” value is roughly 100 RU. Moreover, the “Amount of PT bound” value in the series with PT [9] was ~8 pmol and ~16 pmol.
